From ChEMBL document CHEMBL1128700 (J Med Chem, 1995)

Legend:
[1] = target: Human immunodeficiency virus type 1 reverse transcriptase (Human immunodeficiency virus 1) (UniProt Q72547); experiment: Percent inhibitory activity against wild type (WT) HIV type I reverse transcriptase at a concentration of 1 uM
[2] = target: Human immunodeficiency virus type 1 reverse transcriptase (Human immunodeficiency virus 1, UniProt Q72547); experiment: Compound was evaluated for inhibition of WT HIV type I reverse transcriptase.
[3] = system: Human immunodeficiency virus type 1 reverse transcriptase (Human immunodeficiency virus 1), Q72547 [Y181C]; experiment: Percent inhibitory activity against Y181C HIV type I reverse transcriptase at a concentration of 1 uM
[4] = target: Human immunodeficiency virus type 1 reverse transcriptase (Human immunodeficiency virus 1, UniProt Q72547, Y181C); experiment: Compound was evaluated for inhibition of Y181C HIV type I reverse transcriptase.
[5] = system: Human immunodeficiency virus type 1 reverse transcriptase (Human immunodeficiency virus 1), Q72547 [Y181C]; conditions: 10 uM
Description: Percent inhibitory activity against Y181C HIV type I reverse transcriptase at a concentration of 10 uM

Structure (SMILES)	inhibition [1]	IC50 [2]	inhibition [3]	IC50 [4]	inhibition [5]
O=C1Nc2c(COc3ccccc3Cl)ccnc2N(C2CC2)c2ncccc21	30%	3050 nM	20%	–	–
COc1ccc(OCc2ccnc3c2NC(=O)c2cccnc2N3C2CC2)cc1	47%	1040 nM	41%	–	–
CCN1c2ncccc2C(=O)Nc2c(COc3ccccc3)cc(-c3cccc(OC)c3)nc21	69%	490 nM	37%	–	–
N#Cc1ccc(OCc2ccnc3c2NC(=O)c2cccnc2N3C2CC2)cc1	57%	410 nM	11%	–	–
CCN1c2ncccc2C(=O)Nc2c(C=O)cc(OC)nc21	78%	240 nM	38%	–	–
CCOC(=O)CCc1ccnc2c1NC(=O)c1cccnc1N2C1CC1	13%	–	11%	–	–
Nc1ccc(OCc2ccnc3c2NC(=O)c2cccnc2N3C2CC2)cc1	91%	100 nM	49%	1010 nM	–
Cc1ccnc2c1NC(=O)c1cccnc1N2C1CC1	85%	–	–	–	59%
O=C1Nc2c(CN3CCOCC3)ccnc2N(C2CC2)c2ncccc21	50%	1030 nM	21%	–	–
CCN1c2ncccc2C(=O)Nc2c(CO)cc(-c3cccc(OC)c3)nc21	16%	–	0%	–	–
CCNc1ccc(OCc2ccnc3c2NC(=O)c2cccnc2N3C2CC2)cc1	88%	80 nM	58%	430 nM	–
O=C1Nc2c(CN3CCCCC3)ccnc2N(C2CC2)c2ncccc21	29%	–	20%	–	–
O=C1Nc2c(CC3=CCNC3)ccnc2N(C2CC2)c2ncccc21	54%	640 nM	26%	–	–
O=C1Nc2c(COCCc3ccccc3)ccnc2N(C2CC2)c2ncccc21	55%	420 nM	28%	–	–
O=C(O)/C=C/c1ccnc2c1NC(=O)c1cccnc1N2C1CC1	0%	–	0%	–	–
CCN1c2ncccc2C(=O)Nc2c(COCc3ccccc3)cc(OC)nc21	42%	920 nM	26%	–	–
O=C(O)CCc1ccnc2c1NC(=O)c1cccnc1N2C1CC1	2%	–	8%	–	–
O=C1Nc2c(CSc3ccccc3)ccnc2N(C2CC2)c2ncccc21	44%	1030 nM	14%	–	–
O=C1Nc2c(CCc3ccccc3)ccnc2N(C2CC2)c2ncccc21	36%	–	38%	–	–
O=C1Nc2c(CO)ccnc2N(C2CC2)c2ncccc21	34%	–	4%	–	–

Structure (SMILES)	inhibition [1]	IC50 [2]	inhibition [3]	IC50 [4]	inhibition [5]
CCN1c2ncccc2C(=O)Nc2c(C3OCCCO3)cc(OC)nc21	52%	800 nM	22%	–	–
CCOC(=O)/C=C/c1ccnc2c1NC(=O)c1cccnc1N2C1CC1	27%	–	22%	–	–
CCN1c2ncccc2C(=O)Nc2c(Cc3ccccc3)cc(=O)[nH]c21	–	340 nM	–	1300 nM	–
O=C1Nc2c(COc3ccccc3O)ccnc2N(C2CC2)c2ncccc21	59%	460 nM	42%	–	–
CCN1c2ncccc2C(=O)Nc2c(C=O)cc(O)nc21	36%	–	6%	–	–
CCN1c2ncccc2C(=O)Nc2c(C3OCCCO3)cc(O)nc21	0%	–	0%	–	–
CCN1c2ncccc2C(=O)Nc2c(COCc3ccccc3)cc(O)nc21	83%	–	38%	–	–
CCN1c2ncccc2C(=O)Nc2c(COCc3ccccc3)cc(=O)[nH]c21	–	110 nM	–	1070 nM	–
CCN1c2ncccc2C(=O)Nc2c(C=O)cc(-c3cccc(OC)c3)nc21	71%	330 nM	63%	420 nM	–
O=C1Nc2c(COc3ccc([N+](=O)[O-])cc3)ccnc2N(C2CC2)c2ncccc21	43%	1130 nM	12%	–	–
C=Cc1ccnc2c1NC(=O)c1cccnc1N2C1CC1	83%	110 nM	16%	–	–
Cc1cccc(OCc2ccnc3c2NC(=O)c2cccnc2N3C2CC2)c1	38%	2430 nM	9%	–	–
O=C1Nc2c(CN3CCCC3)ccnc2N(C2CC2)c2ncccc21	51%	700 nM	16%	–	–
CCN1c2ncccc2C(=O)Nc2c(COc3ccccc3)cc(O)nc21	33%	–	20%	–	–
C=CCOCc1ccnc2c1NC(=O)c1cccnc1N2C1CC1	35%	1410 nM	29%	–	–
Cc1ccc(OCc2ccnc3c2NC(=O)c2cccnc2N3C2CC2)cc1	55%	580 nM	33%	–	–
CCN1c2ncccc2C(=O)Nc2c(COCc3ccccc3)cc(-c3cccc(OC)c3)nc21	0%	–	12%	–	–
CCN1c2ncccc2C(=O)Nc2c(Cc3ccccc3)cc(-c3cccc(OC)c3)nc21	20%	–	15%	–	–
COc1ccc(O)c(Cc2ccnc3c2NC(=O)c2cccnc2N3C2CC2)c1	42%	850 nM	47%	–	–
CCN1c2ncccc2C(=O)Nc2c(CO)cc(O)nc21	51%	420 nM	25%	–	–

Structure (SMILES)	inhibition [1]	IC50 [2]	inhibition [3]	IC50 [4]	inhibition [5]
Cc1ccc(Cc2ccnc3c2NC(=O)c2cccnc2N3C2CC2)c(O)c1	76%	200 nM	29%	–	–
Cc1ccccc1OCc1ccnc2c1NC(=O)c1cccnc1N2C1CC1	65%	290 nM	28%	–	–
CCN1c2ncccc2C(=O)Nc2c(Cc3ccccc3)cc(OC)nc21	0%	–	0%	–	–
O=C1Nc2c(COc3ccccc3)ccnc2N(C2CC2)c2ncccc21	78%	120 nM	26%	2580 nM	–
O=C1Nc2c(/C=C/c3ccccc3)ccnc2N(C2CC2)c2ncccc21	23%	–	25%	–	–
O=C1Nc2c(COCc3ccccc3)ccnc2N(C2CC2)c2ncccc21	67%	270 nM	37%	–	–
O=C1Nc2c(Cn3cccn3)ccnc2N(C2CC2)c2ncccc21	36%	2200 nM	5%	–	–
O=C1Nc2c(Cc3ccccc3)ccnc2N(C2CC2)c2ncccc21	73%	140 nM	8%	–	–
O=C1Nc2c(Cc3ccccc3O)ccnc2N(C2CC2)c2ncccc21	75%	190 nM	50%	1120 nM	–
CCN1c2ncccc2C(=O)Nc2c(CO)cc(OC)nc21	89%	50 nM	24%	–	–
CCOCc1ccnc2c1NC(=O)c1cccnc1N2C1CC1	41%	1300 nM	29%	–	–
O=C1Nc2c(COCCCc3ccccc3)ccnc2N(C2CC2)c2ncccc21	29%	–	20%	–	–
O=C1Nc2c(CNc3ccccc3)ccnc2N(C2CC2)c2ncccc21	87%	60 nM	41%	1370 nM	–
CCN1c2ncccc2C(=O)Nc2c(Cc3ccccc3)cc(O)nc21	67%	–	42%	–	–
CCN1c2ncccc2C(=O)Nc2c(COc3ccccc3)cc(OC)nc21	44%	4000 nM	17%	–	–
CCN1c2ncccc2C(=O)Nc2c(C3OCCCO3)cc(-c3cccc(OC)c3)nc21	40%	–	7%	–	–
O=C1Nc2c(CSCc3ccccc3)ccnc2N(C2CC2)c2ncccc21	33%	–	28%	–	–
O=C1Nc2c(Cn3ccnc3)ccnc2N(C2CC2)c2ncccc21	13%	–	20%	–	–
